Experimental data as given in patent publication US12172992B2, “Pyrimidines for degrading Bruton's tyrosine kinase” (AbbVie Inc., priority 2022, dated 2024).

Biological target: BTK protein in human whole blood (Homo sapiens (Human), UniProt Q06187)
Assay: Btk protein in human whole blood MSD ELISA based assay (BTK degradation)
Type: cell-based
Conditions: 6 hours, maximum BTK degradation compared to DMSO only treated samples, read-out: hWB BTK dMax (%)
Protocol: Btk protein degradation was tested using an Meso Scale Discovery-ELISA system (MSD-ELISA): (1) Test compounds were added to human whole blood; (2) human whole blood cells treated with test compounds were lysed; (3) lysed cells were treated with capture antibody, an antibody to Btk; (4) lysed cells were treated with […] to Btk; and (5) lysed cells were treated with anti-mouse antibody (tagged).
Specifically, about 80 μl of fresh human whole blood from healthy donors was transferred into each well of a 96-well V-bottom plate (Costar, Cat No. 3894). Using a TECAN™ D300e Digital Dispenser (Tecan)), 1:4 serially diluted compounds [(8 pt assay) in DMSO solution (final 0.2%) starting at 3 μM top concentration], were added in duplicate. Thereafter, plates were placed in a 37° C. incubator and incubated for 6 hours.
At the end of incubation, 80 μl of 2×CST lysis buffer (Cell Signaling Technology, Cat No. 9803), prepared from a 10× stock solution, was added per well to lyse the blood. Plates were then sealed with a plate sealer and the samples were frozen overnight at −80° C.
Total amount of BTK protein remaining in the blood samples after compound treatment was measured using MSD-ELISA. After thawing the frozen plates, blood lysates were mixed thoroughly and transferred to small spot high-bind MSD plates (Meso Scale Discovery, Cat No. L45XB-3) and coated with capturing antibody, rabbit anti-human BTK (D3H5) (Cell Signaling Technology, Cat No. 8547CF). Thereafter, primary detection antibody, mouse anti-human BTK monoclonal antibody, (BD Biosciences, Cat No. 611117) and secondary detection antibody, anti-mouse SULFO-TAG (Meso Scale Discovery, Cat No. R32AC-1) were added. The assay plates were read on an MSD S600 plate reader by the addition of 2×MSD read buffer (Meso Scale Discovery, R92TC-1). All reagent transfers, including blood lysis, was conducted using a Biomed i7 liquid handler. From the dose response curves, DC50 values were calculated by averaging data from duplicate experiments. and Curve fitting was done by non-linear regression using GraphPad Prism. The DC50 values are reported in Table 2 in the hWB BTK DC50 (nM) column The Dmax values represent the maximum amount of BTK degradation observed upon compound treatment compared to DMSO only treated samples. The dMax (%) values are reported in Table 2 in the hWB BTK dMax (%) column.

Sequence of BTK protein in human whole blood (Q06187 whole entry): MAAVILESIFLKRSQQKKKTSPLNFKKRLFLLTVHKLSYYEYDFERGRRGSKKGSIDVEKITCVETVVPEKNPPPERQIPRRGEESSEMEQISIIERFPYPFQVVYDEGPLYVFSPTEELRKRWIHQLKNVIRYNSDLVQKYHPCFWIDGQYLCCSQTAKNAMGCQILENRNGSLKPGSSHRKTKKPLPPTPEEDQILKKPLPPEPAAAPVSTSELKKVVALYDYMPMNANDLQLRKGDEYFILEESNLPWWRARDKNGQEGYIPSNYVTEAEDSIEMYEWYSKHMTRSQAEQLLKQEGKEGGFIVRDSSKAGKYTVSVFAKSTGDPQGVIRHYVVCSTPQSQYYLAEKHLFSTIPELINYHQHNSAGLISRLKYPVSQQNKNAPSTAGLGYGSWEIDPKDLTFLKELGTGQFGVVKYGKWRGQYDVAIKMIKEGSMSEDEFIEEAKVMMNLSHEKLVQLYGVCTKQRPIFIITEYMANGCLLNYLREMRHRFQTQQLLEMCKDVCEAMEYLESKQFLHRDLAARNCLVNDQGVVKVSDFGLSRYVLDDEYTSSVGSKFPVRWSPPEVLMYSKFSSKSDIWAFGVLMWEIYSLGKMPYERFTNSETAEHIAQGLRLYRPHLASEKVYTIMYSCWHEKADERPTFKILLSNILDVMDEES

- Dmax: 100%
SMILES: Cc1cc(-c2cc(Nc3ccc(N4CCN(CCc5ccc(N6CCC(=O)NC6=O)cc5)C[C@@H]4C)cn3)ncn2)ccc1[C@@H](C)NC(=O)c1nc(C(C)(C)C)no1 [Example 1, 3-tert-butyl-N-[(1R)-1-{4-[6-({5-[(2S)-4-{2-[4-(2,4-dioxo-1,3-diazinan-1-yl)phenyl]ethyl}-2-methylpiperazin-1-yl]pyridin-2-yl}amino)pyrimidin-4-yl]-2-methylphenyl}ethyl]-1,2,4-oxadiazole-5-carboxamide]
